Read-outs that look alike come from different tables or passages of the source.
Key:
HT29 = test: Cell viability (MTT) assay, 24-h IC50, HT29; format: cell-based, human
BxPC-3 = test: Cell viability (MTT) assay, 24-h IC50, BxPC-3
Description: Cells were incubated at 37° C. in 5% CO2. Cells were seeded at 5.5×10^4 cells/cm^2, allowed to attach overnight, and the following morning cells were treated with each of the test compounds.
Cell viability assay: We used an assay based on the reduction of 3-(4,5-dimethylthiazol-2-yl)-2,5-diphenyltetrazolium bromide dye (MTT), which was determined according to the manufacture's protocol (Promega, Madison, Wis., USA).

MDA-MB231 = test: Cell viability (MTT) assay, 24-h IC50, MDA-MB231; format: cell-based, human
MIA-PaCa-2 = test: Cell viability (MTT) assay, 24-h IC50, MIA-PaCa-2; format: cell-based, human
SW480 = test: Cell viability (MTT) assay, 24-h IC50, SW480; format: cell-based, human
MCF-7 = test: Cell viability (MTT) assay, 24-h IC50, MCF-7; format: cell-based, human
[1] = test system: MDA-MB 231 human breast cancer cells; test: Annexin V and propidium iodide staining in MDA-MB231; format: cell-based; conditions: MDA-MB231, compound at its IC50, 24 h; for Necrosis (%): % of entire cell population (control 0.6); for Early apoptosis (%): % of entire cell population (control 1.4); for Late apoptosis (%): % of entire cell population (control 2.0)
Description: Annexin V and propidium iodide (PI) staining: Cells were seeded at a density of 1×10^5 cells/well and treated for 24 h with various concentrations of each compound or equivalent volumes of DMSO. Briefly, after incubation with the test compounds, cells were trypsinized and stained with Annexin V-FITC (Invitrogen) and PI (0.5 μg/ml). Following incubation at room temperature for 15 min in the dark, annexin V-FITC and PI fluorescence intensities were analyzed by FACScaliber (BD Bioscience). Annexin V (+)/PI (−) cells are in early apoptosis, annexin V (+)/PI (+) cells are in late apoptosis (secondary necrosis), and annexin V (−)/ PI (+) cells are necrotic cells.
(§1) As summarized in Table 2 below, in MDA-MB231 cells, all six compounds, each used at its IC50 concentration, a) inhibited cell proliferation between 6% and 50% compared to controls; b) induced both early and late apoptosis, as well as necrosis; and c) inhibited the G1 to S cell cycle phase transition. In this Table, the values for proliferation are the percentage of the corresponding control values. Those for apoptosis and necrosis refer to the percentage of cells in each category with respect to the entire cell population, and are to be compared to the control (vehicle only-treated) cells (uppermost row).

[2] = test system: MDA-MB 231 human breast cancer cells; test: Cell proliferation assay (BrdU incorporation) in MDA-MB231; format: cell-based; conditions: MDA-MB231, each compound at its IC50 concentration
Description: Cell proliferation assay: To determine cell proliferation, we measured the incorporation of 5-bromo-2′-deoxyuridine (BrdU) into newly synthesized cellular DNA, following the manufacture's instructions (BD Biosciences, San Jose, Calif.).
as §1

APC^Min/+ mice = conditions: literature (Yang et al. 2003); cited from earlier work
[3] = format: in vivo; conditions: 5 days oral gavage; phospho-sulindac I 317 mg/kg/d, sulindac 200 mg/kg/day; 8 mice/group
Description: Phospho-sulindac I lacked gastrointestinal toxicity in mice; gastrointestinal toxicity is the major side effect of sulindac as well as of the entire class of NSAIDs. We evaluated in mice the potential toxicity of phospho-sulindac I. Three groups, each consisting of 8 female C57BL/6J+/+mice 6 wks of age, were treated for 5 days by oral gavage with equimolar amounts of phospho-sulindac I (317 mg/kg/d) or conventional sulindac (200 mg/kg/day) or vehicle. Mice were weighed at time 0 and on days 3 and 5. Mice surviving to the end of the study were euthanized and necropsied.
The stomachs of sulindac-treated animals were larger than those of the other two groups and in some the liver appeared hyperemic.

[4] = test system: spermidine/spermine N^1-acetyltransferase (SSAT); test: SSAT enzymatic activity in SW480 cells; format: cell-based, human; conditions: SW480, 24 h; phospho-sulindac I 85 μM; P<0.05 versus control
Description: (§2) SW480 cells were incubated without or with phospho-sulindac I (P-S) for up to 24 h and SSAT activity was determined at each time point by determining the amount of labelled N1-acetylspermidine synthesized from [^14C]acetyl-CoA and unlabeled spermidine.
(§3) The effect of phospho-sulindac I on polyamines is mediated, at least in part, by activation of SSAT by phospho-sulindac I. It is known that conventional sulindac induces SSAT activity (Babbar et al., Cyclooxygenase-independent induction of apoptosis by sulindac sulfone is mediated by polyamines in colon cancer. J Biol Chem 2003; 278(48):47762-75.). Incubation of HT-29 and SW480 cells with 85 μM phospho-sulindac I for 24 h leads to a 3- and 4.4-fold increase of SSAT activity (P<0.05 versus control), respectively. On the other hand, incubation with sulindac led to a 1.5 and 2.5-fold increase of SSAT activity (P<0.05 versus control) in HT-29 and SW480 cells, respectively.

[5] = test system: spermidine/spermine N^1-acetyltransferase (SSAT); test: SSAT enzymatic activity in HT-29 cells; format: cell-based, human; conditions: HT-29, 24 h; phospho-sulindac I 85 μM; P<0.05 versus control
Description: as §2, §3

[6] = Homo sapiens, HT-29, HT29 colon cancer cells, 24 h, read-out: 24-h IC50
[7] = Homo sapiens, BXPC-3, 24 h, read-out: 24-h IC50
[8] = Homo sapiens, MDA-MB-231, MDA-MB231 breast cancer cells, 24 h, read-out: 24-h IC50
[9] = Homo sapiens, MIA-PaCa-2 pancreatic cancer cells, 24 h, read-out: 24-h IC50
[10] = Homo sapiens, SW480 colon cancer cells, 24 h, read-out: 24-h IC50
[11] = Homo sapiens, MCF7, MCF-7 breast cancer cells, 24 h, read-out: 24-h IC50
[12] = HT29 colon cancer cells, 24 h, read-out: 24-h IC50
[13] = read-out: 24-h IC50, BxPC-3 pancreatic cancer cells, 24 h
[14] = MDA-MB231 breast cancer cells, 24 h, read-out: 24-h IC50
[15] = MIA-PaCa-2 pancreatic cancer cells, 24 h, read-out: 24-h IC50
[16] = SW480 colon cancer cells, 24 h, read-out: 24-h IC50
[17] = MCF-7 breast cancer cells, 24 h, read-out: 24-h IC50
[18] = Homo sapiens, BXPC-3, 24 h, read-out: IC50 (growth of human cancer cells)
[19] = Homo sapiens, HT-29, 24 h, read-out: 24-h IC50
[20] = Homo sapiens, MDA-MB-231, 24 h, read-out: 24-h IC50
[21] = Homo sapiens, MIA PaCa-2, 24 h, read-out: 24-h IC50
[22] = Homo sapiens, SW480, 24 h, read-out: 24-h IC50
[23] = Homo sapiens, MCF7, 24 h, read-out: 24-h IC50

| IC50 (HT29; [6]) [µM] | IC50 (MDA-MB231; [8]) [µM] | IC50 (MIA-PaCa-2; [9]) [µM] | IC50 (SW480; [10]) [µM] | IC50 (MCF-7; [11]) [µM] | Structure (SMILES) | IC50 (BxPC-3; [7]) [µM] | Necrosis (%) [1] [%] | Early apoptosis (%) [1] [%] | Late apoptosis (%) [1] [%] | Proliferation (% control) [2] [% control] | other results |
| --- | --- | --- | --- | --- | --- | --- | --- | --- | --- | --- | --- |
| 4000 | > 2000 | > 2000 | > 2000 | > 2000 | CC(=O)Oc1ccccc1C(=O)O [Aspirin, acetylsalicylic acid, reference compound] | > 2000 | – | – | – | – | – |
| 1670 | 823 | 1270 | 1220 | 1430 | CC(C(=O)O)c1ccc(-c2ccccc2)c(F)c1 (stereo not drawn) [Flurobiprofen, flurbiprofen, reference compound] | 825 | – | – | – | – | – |
| – | – | – | – | – | CCOP(=O)(OCC)OCC(COC(=O)c1ccccc1OC(C)=O)OP(=O)(OCC)OCC (stereo not drawn) [Glycero-phospho-aspirin II] | – | 0.4 | 2.4 | 2.2 | 52 | IC50 (HT29; [12]): 40 µM; IC50 (BxPC-3; [13]): 38 µM; IC50 (MDA-MB231; [14]): 360 µM; IC50 (MIA-PaCa-2; [15]): 242 µM; IC50 (SW480; [16]): 170 µM; IC50 (MCF-7; [17]): 248 µM |
| – | – | – | – | – | CCOP1(=O)OCC(COC(=O)c2ccccc2OC(C)=O)O1 (stereo not drawn) [Glycero-phospho-aspirin I] | – | 0.3 | 4.8 | 3.2 | 94 | IC50 (HT29; [12]): 54 µM; IC50 (BxPC-3; [13]): 63 µM; IC50 (MDA-MB231; [14]): 199 µM; IC50 (MIA-PaCa-2; [15]): 303 µM; IC50 (SW480; [16]): 169 µM; IC50 (MCF-7; [17]): 32 µM |
| 1550 | 748 | 1280 | 1060 | 1230 | CC(C)Cc1ccc(C(C)C(=O)O)cc1 (stereo not drawn) [Ibuprofen, ibuprofen, reference compound] | 1060 | – | – | – | – | – |
| – | – | – | – | – | CCCC(CCC)C(=O)Oc1ccc(COP(=O)(OCC)OCC)cc1 [Phosoho-VPA] | – | – | – | – | – | IC50 (HT29; Homo sapiens, HT-29, 24 h, read-out: IC50 (growth of human cancer cells)): 13 µM; IC50 (BxPC-3; [18]): 36 µM; IC50 (MDA-MB231; Homo sapiens, MDA-MB-231, 24 h, read-out: IC50 (growth of human cancer cells)): 30 µM; IC50 (MIA-PaCa-2; Homo sapiens, MIA PaCa-2, 24 h, read-out: IC50 (growth of human cancer cells)): 89 µM; IC50 (SW480; Homo sapiens, SW480, 24 h, read-out: IC50 (growth of human cancer cells)): 59 µM; IC50 (MCF-7; Homo sapiens, MCF7, 24 h, read-out: IC50 (growth of human cancer cells)): 51 µM |
| – | – | – | – | – | CCOP(=O)(OCC)OCCCCOC(=O)C(C)c1ccc(-c2ccccc2)c(F)c1 (stereo not drawn) [Phospho-Flurobiprofen] | 34 | 1.7 | 5.3 | 20.6 | 42 | IC50 (HT29; [19]): 80 µM; IC50 (MDA-MB231; [20]): 17 µM; IC50 (MIA-PaCa-2; [21]): 135 µM; IC50 (SW480; [22]): 104 µM; IC50 (MCF-7; [23]): 65 µM |
| – | – | – | – | – | CCOP(=O)(OCC)OCCCCOC(=O)C(C)c1ccc(CC(C)C)cc1 (stereo not drawn) [Phospho-Ibuprofen] | 53 | 5.6 | 7.4 | 43.2 | 50 | IC50 (HT29; [19]): 82 µM; IC50 (MDA-MB231; [20]): 28 µM; IC50 (MIA-PaCa-2; [21]): 104 µM; IC50 (SW480; [22]): 75 µM; IC50 (MCF-7; [23]): 79 µM |
| – | – | – | – | – | CCOP(=O)(OCC)OCCCCOC(=O)CC1=C(C)/C(=C/c2ccc(SC)cc2)c2ccc(F)cc21 [Phospho-sulindac II] | 32 | 2.6 | 5.0 | 23.2 | 52 | IC50 (HT29; [19]): 70 µM; IC50 (MDA-MB231; [20]): 18 µM; IC50 (MIA-PaCa-2; [21]): 92 µM; IC50 (SW480; [22]): 73 µM; IC50 (MCF-7; [23]): 38 µM |
| – | – | – | – | – | CCCC(CCC)C(=O)O [VPA, Valproic acid, reference compound] | – | – | – | – | – | IC50 (HT29; Homo sapiens, Table 3, HT-29, 24-h IC50, read-out: IC50 (growth of human cancer cells)): 3210 µM; IC50 (BxPC-3; [18]): 1680 µM; IC50 (MDA-MB231; Homo sapiens, MDA-MB-231, Table 3, MDA-MB231, 24-h IC50, read-out: IC50 (growth of human cancer cells)): 4050 µM; IC50 (MIA-PaCa-2; Homo sapiens, MIA PaCa-2, Table 3, MIA PaCa2, 24-h IC50, read-out: IC50 (growth of human cancer cells)): 3080 µM; IC50 (SW480; Homo sapiens, Table 3, SW480, 24-h IC50, read-out: IC50 (growth of human cancer cells)): 3640 µM; IC50 (MCF-7; Homo sapiens, MCF7, Table 3, MCF-7, 24-h IC50, read-out: IC50 (growth of human cancer cells)): 1780 µM |

| Structure (SMILES) | IC50 (HT29; [6]) [µM] | IC50 (MDA-MB231; [8]) [µM] | IC50 (MIA-PaCa-2; [9]) [µM] | IC50 (SW480; [10]) [µM] | IC50 (MCF-7; [11]) [µM] | IC50 (BxPC-3; [7]) [µM] | Necrosis (%) [1] [%] | Early apoptosis (%) [1] [%] | Late apoptosis (%) [1] [%] | Proliferation (% control) [2] [% control] | other results |
| --- | --- | --- | --- | --- | --- | --- | --- | --- | --- | --- | --- |
| CC1=C(CC(=O)O)c2cc(F)ccc2C1=Cc1ccc([S+](C)[O-])cc1 (stereo not drawn) [Sulindac, 2-[6-fluoro-2-methyl-3-[(4-methylsulfinylphenyl)methylidene]inden-1-yl]-acetic acid, reference compound] | 1170 | 530 | 1040 | 900 | 1130 | 489 | – | – | – | – | effect on formation of tumors in the colon of Min mice (APC^Min/+ mice): stimulates the formation of tumors in the colon; mortality [3]: 75%; increase of SSAT activity [4]: 2.5 fold; increase of SSAT activity [5]: 1.5 fold |

Reference: patent publication US8236820B2, “Anti-inflammatory compounds and uses thereof” (priority 2007, dated 2012)
